The values that follow come from PubChem BioAssay (NCI).

Common to all, as to assay: NCI-60 cell line screen, 48 h
The test system of assay [1] is MDA-MB-231 breast.
Assay [2] relates to COLO 205 colon.
Assay [3] deals with OVCAR-5 ovarian.
In assay [4] the test system is 786-0 renal.
Assay [5] deals with OVCAR-8 ovarian.
For assay [6], the system named is EKVX NSCLC.
Assay [7] relates to SNB-75 CNS.
Assay [8] relates to SW-620 colon.
The test system of assay [9] is NCI-H460 lung.
Assay [10] deals with K-562 leukemia.

“And” between values parts separate entries of the source, which are not always exact repeats. Equal entries are not always repeated.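 Exposure lasted 48 hours, with cells grown in 96-well plates and compounds tested at five concentrations. The concentration for 50% growth inhibition is given as GI50. TGI is the concentration that stops growth completely.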 Some results are limits rather than exact numbers.

Regarding `C#CCN(Cc1nc2cc(C(F)(F)F)ccc2nc1-c1ccccc1)c1ccc(C)cc1`, the GI50 was 9.39 µM in assay [1]; 2.79 µM in assay [2]; more than 21.2 µM in assay [3]; 15.5 µM in assay [4]; 10.9 µM in assay [5]; 29.1 µM in [6]. Further, the GI50 in [8] is 12.8 µM; in [9], 3.93 µM; in assay [10], 33 µM. Moreover, the TGI in assay [1] is 40.4 µM; in assay [3] it was more than 40.9 µM; in assay [4], more than 42.8 µM; in [5], more than 73.9 µM; in assay [6] it was more than 62.1 µM; in assay [7], more than 25.2 µM. Further, the TGI in assay [8], in assay [9] and in assay [10] was more than 100 µM each time.

For the molecule `O=C1NC2C(=CC(O)C(O)C2O)c2cc3c(cc21)OCO3` (configuration not stated), the TGI in assay [1] was 2.39 µM; in [2], 0.595 µM and 0.249 µM and 0.579 µM; in assay [3] it was 4.14 µM and 11.4 µM; in assay [4], 4.93 µM; in [5], 2.25 µM and 1.72 µM; in assay [6], 3.06 µM and 2.29 µM. The TGI is 0.953 µM and 4.31 µM and 4 µM in [7]; 4.07 µM and 19.9 µM in [8]; 2.01 µM and 1.3 µM in assay [9]; 3.64 µM and 7.68 µM in assay [10]. Besides, the GI50 in [2] was 0.074 µM; in [3] it was 0.802 µM; in [4], 0.544 µM; in assay [5], 0.344 µM and 0.171 µM; in assay [6], 0.285 µM; in [7] it was 0.165 µM and 0.291 µM. Moreover, the GI50 is 0.412 µM and 0.199 µM in assay [8]; 0.251 µM and 0.147 µM in [9]; 0.294 µM and 0.149 µM in assay [10].

For the molecule `COCCNc1ccc2c3c(cccc13)C(=O)N(CCN(C)C)C2=O`, the GI50 is 12.9 µM in assay [1]; 2.74 µM in assay [2]; 9.41 µM in [3]; 9.13 µM in [4]; 6.85 µM in assay [5]; 6.23 µM in assay [6]. Further, the GI50 in [7] is 15.9 µM; in assay [8] it was 6.69 µM; in assay [9], 4.63 µM; in [10], 4.66 µM. Also, the TGI in assay [1] is more than 25 µM; in assay [2], 12.5 µM; in assay [3], more than 25 µM; in [4], more than 25 µM; in assay [5], more than 25 µM; in assay [6], more than 25 µM. For the same molecule, the TGI in assay [7] was more than 25 µM; in assay [8] it was more than 25 µM; in [9] it was 11.4 µM; in assay [10], 11.5 µM.

In the case of `Cc1cc(O)cc(C)c1/C=C/c1cncc(C(N)=O)c1`, the GI50 is 2.15 µM in assay [1]; 16.5 µM in [2]; 12.1 µM in assay [3]; 8.6 µM in [4]; 4.15 µM in [5]; 7.93 µM in assay [6]. Moreover, the GI50 in [7] is 2.81 µM; in assay [8] it was 1.4 µM; in assay [9] it was 1.84 µM; in [10], 1.06 µM. Moreover, the TGI in assay [1], in assay [2], in assay [3], in assay [4], in assay [5] and in [6] was more than 25 µM in each case. Further, the TGI in assay [7] is more than 18.2 µM; in assay [8], more than 25 µM; in [9], more than 25 µM; in assay [10], more than 25 µM.

As for `Cn1nc(C(F)(F)F)cc1-c1c[nH]c(OCc2ccc(Cl)cc2)c(-c2ccc(Cl)c(C(F)(F)F)c2)c1=O`, the GI50 was 1.13 µM in assay [1]; 0.935 µM in assay [2]; 1.71 µM in assay [3]; 1.25 µM in assay [4]; 1.19 µM in [5]; 1.39 µM in assay [6]. Moreover, the GI50 in assay [7] is 0.872 µM; in assay [8] it was 1.44 µM; in assay [9], 0.944 µM; in assay [10] it was 0.724 µM. The TGI in [1] is 3.51 µM; in assay [2] it was 1.97 µM; in assay [3], more than 32.8 µM; in assay [4], 4.37 µM; in [5], more than 50 µM; in assay [6], more than 50 µM. In addition, the TGI in assay [7] was 2.72 µM; in assay [8], 7.74 µM; in assay [9], 5 µM; in assay [10], more than 50 µM.

For the molecule `COc1cccc(/C=N/NC(=O)c2ccccc2N2CCCC2)c1O`, the GI50 was 7.31 µM in assay [1]; 3.03 µM in assay [2]; 9.72 µM in assay [3]; 3.58 µM in assay [4]; 5.49 µM in [5]; 3.32 µM in [6]. Besides, the GI50 in assay [7] was 16.9 µM; in assay [8], 4.08 µM; in assay [9], 3.25 µM; in assay [10], 5.45 µM. Moreover, the TGI in assay [1], in assay [2], in assay [3], in [4], in assay [5] and in [6] was more than 100 µM each time. Besides, the TGI is more than 100 µM in assay [7], more than 100 µM in [8], 52 µM in [9] and more than 100 µM in assay [10].

In the case of `O=C(O)C(C(=O)O)P(=S)(S)c1ccccc1` (configuration not stated), the TGI in assay [1], in assay [2], in assay [3], in [4], in assay [5] and in assay [6] was more than 100 µM each time. Besides, the TGI in assay [7], in assay [8], in [9] and in [10] was more than 100 µM in each case.

As to `CCOC(=O)c1cc(C(=O)c2cc(OC)c(OC)c(OC)c2)n2c1ccc1ccccc12`, the GI50 in assay [1] is 1.48 µM; in assay [2], 0.26 µM; in assay [3] it was 0.539 µM; in [4] it was 0.693 µM; in assay [5] it was 0.489 µM; in [6], 0.461 µM. In addition, the GI50 is 0.0599 µM in assay [7], 0.157 µM in assay [8], 0.313 µM in assay [9] and 0.0604 µM in assay [10]. For the same molecule, the TGI in assay [1] was more than 100 µM; in assay [2] it was 1.94 µM; in assay [3] it was more than 100 µM; in [4] it was more than 100 µM; in assay [5], more than 100 µM; in assay [6], more than 100 µM. Also, the TGI is 0.617 µM in assay [7], more than 100 µM in assay [8], more than 100 µM in assay [9] and more than 100 µM in assay [10].
